Experimental data reported in patent publication US6777004B1, “Composition containing novel compound corniculatonin having antifungi properties and a process for preparing the same” (Council of Scientific & Industrial Research, priority 2001, dated 2004).

Columns and labels:
[1] = tested on: Candida sp.; test: Minimum Inhibitory Concentration (MIC), disk diffusion method; assay type: cell-based; settings: 3.12-50 μg per disk tested, 42-120 hrs at room temperature
Text: (§1) Agar: Czapek Malt Agar (Himedia laboratories Ltd.) was used for culturing Microsporumn gypseum, Trichophyton mentagrophytes T. tonsurans, T. violaceum, Aspergillus fresenii and A. niger. Mycological Agar (Himedia Laboratories Ltd) was used for Cryptococcus neoformans and Candida sp.
(§2) Pathogenic fungal strains of yeast and filamentous fungi identified and gifted by Dr. Savio from Goa Medical College, Bambolim, were used for the test. Strains of Aspergillus were isolated from the infected wheat bread with sterile needle; fungal material was surface sterilized using 0.5% sodium hypochlorite for 2-3 minutes, and then washed with small brush in sterile distilled water. Washed fungal material was transferred using needle into the sterile culture media and subcultured for purification by following standard methods (Collins and Taylor, 1967). Taxonomic identification was done by using various standard keys (Ainswort et al., 1973; Onion et al., 1981) and identification confirmed by Alka Pandey of Agarkar Research Institute, Pune.
(§3) Innocula were adjusted to 100 μl of Cryptococcus neoformans, Candida sp., Microsporum gypseum, Trichophyton tonsurans, T. violaceum and Trichophyton mentagrophytes and spread on the appropriate plates, excess moisture was allowed to absorb for 10 minutes before applying disks. Immediately prior to the assay, the testing compound of formula 1, object of the present invention, the reference compounds amphotericin B and nystatin, potency approx:750 μ/mg and 480 USP unit/mg respectively, were reconstituted in triplicate in dimethylsulfoxide. […] From the stock solution 10 μl were spread on the paper disk so as to obtain final concentration of 50 μg disc^−1, 25 μg disc^−1, 12.5 μg disc^−1, 6.25 μg disc^−1 and 3.12 μg disk^−1. Disks were dried at reduced pressure in the dessicator, at 28-29° C. and applied to innoculated plates.
(§4) In testing, the compound of formula 1 was reconstituted in dimethylsulfoxide (DMSO) immediately prior to all assays. Dimethylsulfoxide (DMSO) alone had no detectable inhibitory effect on any of the tested microbes. Compound of formula 1 was tested against a diverse collection of yeast and filamentous fungi, some of which are resistant to the reference compound nystatin. Filamentous fungi were nystatin resistant.

[2] = tested on: Cryptococcus neoformans; test: as above; assay type: cell-based; settings: 3.12-50 μg per disk tested, 42-120 hrs at room temperature
Text: as §1, §2, §3, §4

[3] = tested on: strains of yeast and filamentous fungi; test: In vitro antifungal activity, disk diffusion, whole panel (summary in words); assay type: cell-based; settings: for antifungal activity in words: all the strains of yeast and filamentous fungi tested
Procedure: as §3, §4

[4] = tested on: T. violaceum; test: Minimum Inhibitory Concentration (MIC), disk diffusion method; assay type: cell-based; settings: 3.12-50 μg per disk tested, 42-120 hrs at room temperature
Text: as §1, §2, §3, §4

[5] = tested on: Microsporum gypseum; test: as above; assay type: cell-based; settings: 3.12-50 μg per disk tested, 42-120 hrs at room temperature
Text: as §1, §2, §3, §4

[6] = tested on: Aspergillus fresenii; test: as above; assay type: cell-based; settings: 3.12-50 μg per disk tested, 42-120 hrs at room temperature
Text: as §1, §2, §3, §4

[7] = tested on: Trichophyton mentagrophytes; test: as above; assay type: cell-based; settings: 3.12-50 μg per disk tested, 42-120 hrs at room temperature
Text: as §1, §2, §3, §4

[8] = tested on: T. tonsurans; test: Disk diffusion assay, zone of inhibition; assay type: cell-based, Trichophyton tonsurans; settings: 250 μg. disk^−1; incubated at room temperature 42-120 hrs
Text: as §1, §2
Disk diffusion assay: The disk diffusion assay was used for screening of antifungal activity of the compound. The stock solution for the test was prepared by dissolving 5 mg of the compound of formula 1 in 200 μl dimethylsulfoxide (DMSO). […] The zones of inhibition around the disks were measured.

[9] = tested on: T. tonsurans; test: Minimum Inhibitory Concentration (MIC), disk diffusion method; assay type: cell-based, Trichophyton tonsurans; settings: 3.12-50 μg per disk tested, 42-120 hrs at room temperature
Text: as §1, §2
Innocula were adjusted to 100 μl of Cryptococcus neoformans, Candida sp., Microsporum gypseum, Trichophyton tonsurans, T. violaceum and Trichophyton mentagrophytes and spread on the appropriate plates, excess moisture was allowed to absorb for 10 minutes before applying disks. […]

[10] = tested on: T. violaceum; test: Disk diffusion assay, zone of inhibition; assay type: cell-based; settings: 250 μg. disk^−1; incubated at room temperature 42-120 hrs
Text: as §1, §2
(§5) Disk diffusion assay: The disk diffusion assay was used for screening of antifungal activity of the compound. The stock solution for the test was prepared by dissolving 5 mg of the compound of formula 1 in 200 μl dimethylsulfoxide (DMSO). From the stock solution 10 μl were spread on the paper disc so as to obtain the final concentration of 250 μg disk^−1 Control disk was applied reconstituted with only dimethylsulphoxide and were dried at 28-29° C. Completely dried disk was applied to innoculated plates. The plates were incubated at room temperature for the period between 42-120 hrs. to obtain maximum growth in the culture media. The zones of inhibition around the disks were measured.

[11] = tested on: Candida sp.; test: Disk diffusion assay, zone of inhibition; assay type: cell-based; settings: 250 μg. disk^−1; incubated at room temperature 42-120 hrs
Text: as §1, §2, §5

[12] = tested on: Aspergillus niger; test: Disk diffusion assay, zone of inhibition; assay type: cell-based; settings: 250 μg. disk^−1; incubated at room temperature 42-120 hrs
Text: as §1, §2, §5

[13] = tested on: Microsporum gypseum; test: Disk diffusion assay, zone of inhibition; assay type: cell-based; settings: 250 μg. disk^−1; incubated at room temperature 42-120 hrs
Text: as §1, §2, §5

[14] = tested on: Cryptococcus neoformans; test: Disk diffusion assay, zone of inhibition; assay type: cell-based; settings: 250 μg. disk^−1; incubated at room temperature 42-120 hrs
Text: as §1, §2, §5

[15] = tested on: Aspergillus fresenii; test: Disk diffusion assay, zone of inhibition; assay type: cell-based; settings: 250 μg. disk^−1; incubated at room temperature 42-120 hrs
Text: as §1, §2, §5

[16] = tested on: Trichophyton mentagrophytes; test: Disk diffusion assay, zone of inhibition; assay type: cell-based; settings: 250 μg. disk^−1; incubated at room temperature 42-120 hrs
Text: as §1, §2, §5

[17] = tested on: Cladosporium cucumerinum; settings: plant pathogenic fungus Cladosporium cucumerinum; cited from earlier work
[18] = tested on: Aspergillus niger; test: Minimum Inhibitory Concentration (MIC), disk diffusion method; assay type: cell-based; settings: 3.12-50 μg per disk tested, 42-120 hrs at room temperature
Text: as §1, §2, §3, §4

Compound | MIC [1] | MIC [2] | sensitivity of filamentous fungi in words ([3]; filamentous fungi) | MIC [4] | MIC [5] | MIC [6] | MIC [7] | Disk Diffusion Method, zone of inhibition [8] | MIC [9] | antifungal activity in words [3] | Disk Diffusion Method, zone of inhibition [10] | Disk Diffusion Method, zone of inhibition [11] | Disk Diffusion Method, zone of inhibition [12] | Disk Diffusion Method, zone of inhibition [13] | Disk Diffusion Method, zone of inhibition [14] | Disk Diffusion Method, zone of inhibition [15] | Disk Diffusion Method, zone of inhibition [16] | antifungal amount in TLC bioassay [17] | MIC [18]
C[C@@H]1[C@H](O)[C@@H](C)/C=C/C=C/CC/C=C/C=C/C=C/C=C/C(O[C@H]2O[C@H](C)[C@@H](O)[C@H](N)[C@@H]2O)CC2O[C@](O)(CC(O)C(O)CCC(O)CC(O)CC(O)CC(=O)O[C@H]1C)CC(O)C2C(=O)O (some centres unmarked) [Nystatin] | 6.25-12.5 μg. disk^−1 | 6.25-12.5 μg. disk^−1 | resistant | – | – | – | – | – | – | – | – | – | – | – | – | – | – | – | –
3-O-α-rhamnopyranosyl-rhamnopyranosyl-glucopyranosyl-glucoronopyranosylgluco-pyrano side 16 α-hydroxy-13,28-epoxy oleanane [Compound 1] | 6.25-12.5 μg. disk^−1 | 6.25-12.5 μg. disk^−1 | – | 25-50 μg. disk^−1 | 12.5-25 μg. disk^−1 | 25-50 μg. disk^−1 | 25-50 μg. disk^−1 | 14 mm | 12.5-25 μg. disk^−1 | fungicidal against all the strains of yeast and filamentous fungi tested except Aspergillus niger | 13 mm | 9 mm | 4 mm | 14 mm | 9 mm | 10 mm | 12 mm | – | –
Sakurasaponin | – | – | – | – | – | – | – | – | – | – | – | – | – | – | – | – | – | 1 µg | –
C[C@@H]1[C@H](O)[C@@H](C)/C=C/C=C/C=C/C=C/C=C/C=C/C=C/[C@H](O[C@@H]2O[C@H](C)[C@@H](O)[C@H](N)[C@@H]2O)C[C@@H]2O[C@](O)(C[C@@H](O)C[C@@H](O)[C@H](O)CC[C@@H](O)C[C@@H](O)CC(=O)O[C@H]1C)C[C@H](O)[C@H]2C(=O)O [Amphotericin B, reference compound] | 3.12-6.25 μg. disk^−1 | 3.12-6.25 μg. disk^−1 | – | 6.25-12.5 μg. disk^−1 | 6.25-12.5 μg. disk^−1 | 12.5-25 μg. disk^−1 | 6.25-12.5 μg. disk^−1 | – | 6.25-12.5 μg. disk^−1 | sensitive | – | – | – | – | – | – | – | – | 12.5-25 μg. disk^−1
